Activity calls are given as the source filed them. The rule behind the calls is not given here.
How the values were obtained:
Cladosporium cucumerinum [1] = experiment: Antifungal activity against Cladosporium cucumerinum at 5 ug after 3 days by MTT assay; assay type: functional, organism-based
[2] = test system: Radical scavenging activity; experiment: Antioxidant activity assessed as DPPH radical scavenging activity at 10 ug; assay type: functional
Candida albicans [3] = experiment: Antifungal activity against Candida albicans at 10 ug after 3 days by MTT assay; assay type: functional, organism-based
Candida albicans [4] = experiment: Antifungal activity against Candida albicans at 5 ug after 3 days by MTT assay; assay type: functional, organism-based
[5] = test system: Radical scavenging activity; experiment: Antioxidant activity assessed as DPPH radical scavenging activity at 1 ug; assay type: functional
Cladosporium cucumerinum [6] = experiment: Antifungal activity against Cladosporium cucumerinum at 1 ug after 3 days by MTT assay; assay type: functional, organism-based
Cladosporium cucumerinum [7] = experiment: Antifungal activity against Cladosporium cucumerinum at 10 ug after 3 days by MTT assay; assay type: functional, organism-based
[8] = test system: Radical scavenging activity; experiment: Antioxidant activity assessed as DPPH radical scavenging activity at 5 ug; assay type: functional

| Compound | Activity (Cladosporium cucumerinum [1]) | Activity [2] | Activity (Candida albicans [3]) | Activity (Candida albicans [4]) | Activity [5] | Activity (Cladosporium cucumerinum [6]) | Activity (Cladosporium cucumerinum [7]) | Activity [8] |
| --- | --- | --- | --- | --- | --- | --- | --- | --- |
| COc1cc(O)c2c(=O)c(-c3ccc(O)c(C)c3OC)coc2c1 | Active | inactive | inactive | inactive | inactive | Active | Active | inactive |
| COc1cc(-c2cc(=O)c3c(O)cc(O)cc3o2)cc(OC)c1O | inactive | Active | inactive | inactive | Active | inactive | inactive | Active |
| CC1(C)C=Cc2c(cc(O)c3c(=O)c(-c4ccc(O)cc4O)coc23)O1 | Active | Active | Active | Active | Active | Active | Active | Active |
| CC1(C)C=Cc2c(cc3occ(-c4ccc(O)cc4O)c(=O)c3c2O)O1 | Active | Active | Active | Active | Active | Active | Active | Active |
| COc1cc(O)c2c(=O)c(-c3ccc(O)c(C)c3O)coc2c1 | inactive | Active | Active | Active | Active | inactive | Active | Active |
| C=C(C)C(O)Cc1c(O)cc(O)c2c1OC(c1ccc(O)cc1)CC2=O (centres undefined) | Active | Active | Active | Active | Active | inactive | Active | Active |
| COc1cc(O)c2c(=O)c(-c3ccc(O)cc3OC)coc2c1 | inactive | Active | inactive | inactive | inactive | inactive | inactive | Active |
| COc1cc(O)c2c(=O)c(-c3ccc(O)cc3O)coc2c1 | Active | inactive | inactive | inactive | inactive | Active | Active | inactive |
